Measured values from PubChem BioAssay AID1963967 (Molecular Pharmacology Branch, DTP, NCI, 2024).

System: 855422-203-R-J1-PDC spheroids with HUVEC/MSC, viability
Assay: Anticancer human tumor 855422-203-R-J1-PDC patient-derived bladder carcinoma cell line growth inhibition [PI3K]
Conditions: for IC50: curve of first compound; for viability, T/C: stronger effect = lower value
Summary of the method: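 Multi-cell spheroids combine tumor cells with HUVEC and human MSCs, treated with targeted agents alone or with inavolisib, alpelisib, duvelisib or copanlisib. Concentrations fall in half-log steps from at or near clinical Cmax, or from 10 microM where Cmax is unknown; viability read-out.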
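Further: agents incubated with spheroids for one week before read-out.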
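Wherever viability, T/C is given: 100% = DMSO vehicle-treated control wells.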

`Cn1cnc2c(F)c(Nc3ccc(Br)cc3Cl)c(C(=O)NOCCO)cc21` + COc1c(OCCCN2CCOCC2)ccc2c3n(c(=NC(=O)c4cnc(N)nc4)nc12)CCN3 gave an IC50 (second compound 0.00316 µM) of 2440 nM, an IC50 (second compound 0.01 µM) of 1570 nM and an IC50 (second compound 0.0316 µM) of 283 nM. The IC50 (second compound 0.1 µM) was under 9.49 nM, the IC50 (second compound 0.316 µM) was under 9.49 nM and the IC50 (second compound 1 µM) was under 9.49 nM. It also gave a viability, T/C (second compound 0.00316 µM, first compound 0.00949 µM) of 94.1%, a viability, T/C (second compound 0.00316 µM, first compound 0.03 µM) of 88.1% and a viability, T/C (second compound 0.00316 µM, first compound 0.0949 µM) of 91.4%. The viability, T/C (second compound 0.00316 µM, first compound 0.3 µM) was 93.5%, the viability, T/C (second compound 0.00316 µM, first compound 0.949 µM) was 90.1% and the viability, T/C (second compound 0.00316 µM, first compound 3 µM) was 41.2%. For the same molecule, the viability, T/C (second compound 0.01 µM, first compound 0.00949 µM) was 73.6%, the viability, T/C (second compound 0.01 µM, first compound 0.03 µM) was 90.6% and the viability, T/C (second compound 0.01 µM, first compound 0.0949 µM) was 82%. For the same molecule, the viability, T/C (second compound 0.01 µM, first compound 0.3 µM) was 85.9%, the viability, T/C (second compound 0.01 µM, first compound 0.949 µM) was 66.2% and the viability, T/C (second compound 0.01 µM, first compound 3 µM) was 29.1%. For the same molecule, the viability, T/C (second compound 0.0316 µM, first compound 0.00949 µM) was 64%, the viability, T/C (second compound 0.0316 µM, first compound 0.03 µM) was 64% and the viability, T/C (second compound 0.0316 µM, first compound 0.0949 µM) was 60.8%. The viability, T/C (second compound 0.0316 µM, first compound 0.3 µM) was 47.1%, the viability, T/C (second compound 0.0316 µM, first compound 0.949 µM) was 34.6% and the viability, T/C (second compound 0.0316 µM, first compound 3 µM) was 12.7%. For the same molecule, the viability, T/C (second compound 0.1 µM, first compound 0.00949 µM) was 30.8%, the viability, T/C (second compound 0.1 µM, first compound 0.03 µM) was 26.1% and the viability, T/C (second compound 0.1 µM, first compound 0.0949 µM) was 22.2%. The viability, T/C (second compound 0.1 µM, first compound 0.3 µM) was 21.8%, the viability, T/C (second compound 0.1 µM, first compound 0.949 µM) was 10.2% and the viability, T/C (second compound 0.1 µM, first compound 3 µM) was 2.98%. For the same molecule, the viability, T/C (second compound 0.316 µM, first compound 0.00949 µM) was 8.62%, the viability, T/C (second compound 0.316 µM, first compound 0.03 µM) was 6.53% and the viability, T/C (second compound 0.316 µM, first compound 0.0949 µM) was 5.43%. For the same molecule, the viability, T/C (second compound 0.316 µM, first compound 0.3 µM) was 4.82%, the viability, T/C (second compound 0.316 µM, first compound 0.949 µM) was 2.2% and the viability, T/C (second compound 0.316 µM, first compound 3 µM) was 0.34%. The viability, T/C (second compound 1 µM, first compound 0.00949 µM) was 3.01%, the viability, T/C (second compound 1 µM, first compound 0.03 µM) was 3.36% and the viability, T/C (second compound 1 µM, first compound 0.0949 µM) was 1.65%. The viability, T/C (second compound 1 µM, first compound 0.3 µM) was 2.9%, the viability, T/C (second compound 1 µM, first compound 0.949 µM) was 0.38% and the viability, T/C (second compound 1 µM, first compound 3 µM) was 0.99%.
